Where a name gives a salt, the structure may show the parent alone. Read-outs that look alike come from different tables or passages of the source.
How the values were obtained:
[1] = test system: interleukin-1β production; assay: Inhibitory activity against interleukin-1β production (LPS-stimulated HL-60 cells, ELISA); format: cell-based; details: Table 1, lipopolysaccharide 10 μg/mL, culturing for 3 days, read-out: IL-1β production inhibiting activity IC50
Description: Inhibitory Activity Against Interleukin-1β Production
HL-60 cells were cultured for 4 days until confluence on RPMI 1640 medium with 10% fetal bovine serum (FBS) added thereto. The medium was centrifuged. The supernatant was discarded, and the cells were then suspended at 1×10^6 cells/mL on RPMI 1640 medium with 3% FBS, and lipopolysaccharide was added to give a final concentration of 10 μg/mL. The culture was inoculated at 1 mL/well to a 24-well plate. A sample compound was added at 1 μL/well, followed by culturing for 3 days. Three days later, the amount of interleukin-1β in each culture was determined by ELISA. Each IC50 value was determined by a comparison in yield with a control to which no test sample was added.

Water solubility test = format: physicochemical; details: for Solubility (%): purified water, from amount of water required for dissolution; for Dissolution in the added water (in words): 100 mL purified water added
Description: Experiment 2 (Water Solubility Test) Testing Method
Each sample compound was weighed in the amount shown in Table 3, to which purified water was added in 0.05 mL aliquots. The solubility (%) of the compound was determined based on the amount of water required for its dissolution.

[2] = Oral absorbability test on rats and/or mice; format: in vivo; details: orally administered to mice and/or rats, as in Experiment 3
Text: Experiment 4 (Oral Absorbability Test on Rats and/or Mice)
In a similar manner as in Experiment 3, test compounds of Examples 23, 25, 143, 193, 245, 246, 247, 248 and 249 were orally administered to mice and/or rats to test their oral absorbability.

[3] = Oral absorbability test on rats (plasma levels by HPLC); format: in vivo; details: male SD rats, oral 10 mg/5 mL/kg, suspension in 0.5% MC, plasma 0.25-8 hours
Description: Experiment 3 (Oral Absorbability Test on Rats)
The compound of Example 83 and the comparative compound 3 were suspended at 2 mg/mL with a 0.5% MC solution in mortars, respectively, and were orally administered to male SD rats at 10 mg/5 mL/kg. Upon elapsed time of 0.25, 0.5, 1, 2, 4, 6 and 8 hours after the administration, blood samples were collected and then centrifuged to provide plasma samples. The plasma levels of the respective compounds were determined by HPLC. […] The compound of Example 83 is, therefore, useful as an orally dosable medicine.

Row | Solubility (%) (Water solubility test) | Oral absorbability (FIGS. 2 to 6) [2] | SMILES | other results
1 | 0.8% | – | COc1ccc(-c2cc(CN(C)C)c(=O)n(CC3CC3)n2)cc1F.Cl [Example 14, 2-cyclopropylmethyl-4-dimethylaminomethyl-6-(3-fluoro-4-methoxyphenyl)-2H-pyridazin-3-one hydrochloride] | IC50 ([1]; Homo sapiens, 72 h): 3.61 µM
2 | 10% | good absorbability | COc1ccc(-c2cc(CN(CCO)CCO)c(=O)n(CC3CC3)n2)cc1F.Cl [Example 23, 4-N,N-bis(2-hydroxyethyl)aminomethyl-2-cyclopropylmethyl-6-(3-fluoro-4-methoxyphenyl)-2H-pyridazin-3-one hydrochloride] | IC50 [1]: 0.33 µM
3 | 0.4% | good absorbability | COc1ccc(-c2cc(CN)c(=O)n(CC3CC3)n2)cc1F.Cl [Example 25, 4-aminomethyl-2-cyclopropylmethyl-6-(3-fluoro-4-methoxyphenyl)-2H-pyridazin-3-one hydrochloride] | –
4 | – | – | Cc1ccc(-c2cc(CN(CCO)CCO)c(=O)n(CC(C)C)n2)cc1 [Example 49, 4-N,N-bis(2-hydroxyethyl)aminomethyl-6-(4-methylphenyl)-2-isobutyl-2H-pyridazin-3-one hydrochloride] | IC50 [1]: 3.53 µM
5 | – | – | Cc1cc(-c2cc(CN3CCN(C)CC3)c(=O)n(CC(C)C)n2)ccc1F.Cl.Cl [Example 83, 6-(4-fluoro-3-methylphenyl)-2-isobutyl-4-(4-methyl-1-piperazinyl)methyl-2H-pyridazin-3-one dihydrochloride] | Oral absorption (plasma levels, FIG. 1) [3]: good absorption
6 | >20% | – | CC(C)Cn1nc(-c2ccc(F)c(F)c2)cc(CN(CCO)CCO)c1=O.Cl [Example 108, 4-N,N-bis(2-hydroxyethyl)aminomethyl-6-(3,4-difluorophenyl)-2-isobutyl-2H-pyridazin-3-one hydrochloride] | IC50 [1]: 3.44 µM
7 | 10% | good absorbability | Cc1cc(-c2cc(CN3CCN(C)CC3)c(=O)n(CC=Cc3ccc(Cl)cc3)n2)ccc1F.Cl.Cl [Example 143, 2-(4-chlorocinnamyl)-6-(4-fluoro-3-methylphenyl)-4-(4-methyl-1-piperazinyl)methyl-2H-pyridazin-3-one dihydrochloride] | melting point: 229.7 to 243.3 °C (dec.)
8 | >10% | – | CSc1ccc(-c2cc(CN3CCN(C)CC3)c(=O)n(CC3CC3)n2)cc1.Cl.Cl [Example 149, 2-cyclopropylmethyl-4-(4-methyl-1-piperazinyl)methyl-6-[4-(methylthio)phenyl]-2H-pyridazin-3-one dihydrochloride] | melting point: 234.6 to 239.2 °C
9 | 0.5% | – | CSc1ccc(-c2cc(CN(C)C)c(=O)n(CC3CC3)n2)cc1.Cl [Example 153, 2-cyclopropylmethyl-4-dimethylaminomethyl-6-[4-(methylthio)phenyl]-2H-pyridazin-3-one hydrochloride] | IC50 ([1]; Homo sapiens, 72 h): 0.58 µM; melting point: 230.2 to 232.3 °C
10 | 5% | good absorbability | COc1ccc(-c2cc(CN3CCNCC3)c(=O)n(Cc3ccc(F)cc3)n2)cc1F.Cl.Cl [Example 193, 2-(4-fluorobenzyl)-6-(3-fluoro-4-methoxyphenyl)-4-(1-piperazinyl)methyl-2H-pyridazin-3-one dihydrochloride] | –
11 | 10% | good absorbability | COc1ccc(-c2cc(CN3CCN(C)CC3)c(=O)n(Cc3ccc(F)c(F)c3)n2)cc1F.Cl.Cl [Example 245, 2-(3,4-difluorobenzyl)-6-(3-fluoro-4-methoxyphenyl)-4-(4-methyl-1-piperazinyl)methyl-2H-pyridazin-3-one dihydrochloride] | –
12 | 2% | good absorbability | COc1ccc(-c2cc(CN(C)C)c(=O)n(Cc3ccc(F)c(F)c3)n2)cc1F.Cl [Example 246, 2-(3,4-difluorobenzyl)-4-dimethylaminomethyl-6-(3-fluoro-4-methoxyphenyl)-2H-pyridazin-3-one hydrochloride] | –
13 | 10% | good absorbability | Cc1cc(-c2cc(CN3CCN(C)CC3)c(=O)n(CCCc3ccc(Cl)cc3)n2)ccc1F.Cl.Cl [Example 247, 2-[3-(4-chlorophenyl)propyl]-6-(4-fluoro-3-methylphenyl)-4-(4-methyl-1-piperazinyl)methyl-2H-pyridazin-3-one dihydrochloride] | –
14 | 0.06% | good absorbability | COc1ccc(-c2cc(CN3CCN(C)CC3)c(=O)n(CC=Cc3ccc(Cl)cc3)n2)cc1F.Cl.Cl [Example 248, 2-(4-chlorocinnamyl)-6-(3-fluoro-4-methoxyphenyl)-4-(4-methyl-1-piperazinyl)methyl-2H-pyridazin-3-one dihydrochloride] | –
15 | 0.03% | good absorbability | COc1ccc(-c2cc(CN3CCN(CCO)CC3)c(=O)n(CC=Cc3ccc(Cl)cc3)n2)cc1F.Cl.Cl [Example 249, 2-(4-chlorocinnamyl)-6-(3-fluoro-4-methoxyphenyl)-4-[4-(2-hydroxyethyl)-1-piperazinyl]methyl-2H-pyridazin-3-one dihydrochloride] | –
16 | <0.001% | – | CCOC(=O)Nc1cc(-c2ccc(OC)cc2)nn(C/C=C/c2ccc(Cl)cc2)c1=O [compound 1, reference compound] | Dissolution in the added water (in words) (Water solubility test): (insoluble)
17 | <0.001% | – | CNC(=O)c1cc(-c2ccc(OC)cc2)nn(CC(C)C)c1=O [compound 2, reference compound] | Dissolution in the added water (in words) (Water solubility test): (insoluble)
18 | <0.001% | – | CNC(=O)c1cc(-c2ccc(OC)c(F)c2)nn(CC2CC2)c1=O [compound 3, reference compound] | Dissolution in the added water (in words) (Water solubility test): (insoluble); Oral absorption (plasma levels, FIG. 1) [3]: no substantial absorption
19 | <0.001% | – | COc1ccc(-c2cc(C(=O)O)c(=O)n(C/C=C/c3ccc(Cl)cc3)n2)cc1 [compound 4, reference compound] | Dissolution in the added water (in words) (Water solubility test): (insoluble)
